The values that follow are results of earlier work, collected in publication PMC13041344 (Antimicrobial Agents and Chemotherapy, 2026).

SMILES strings stand for the structures.

A word on the Cmax: it is the peak of the concentration-time curve.

The conditions of this series: humans; 2 g q8h as a 3-h infusion.

Take `C[C@@H](O)[C@H]1C(=O)N2C(C(=O)O)=C(S[C@@H]3CN[C@H](C(=O)N(C)C)C3)[C@H](C)[C@H]12` [MEM, meropenem]: the Cmax is 46000 ng/mL.
